Test results as given in patent US20230312529A1, “PYRIMIDINE SMALL-MOLECULE COMPOUND AND APPLICATION THEREOF” (WENZHOU MEDICAL UNIVERSITY, priority 2021, published 2023).

Columns and labels:
Experiment in all cases: Caliper Mobility Shift kinase inhibition test
Assay type in all cases: biochemical
IKK β = IKK β (Homo sapiens (Human), UniProt O14920)
Experimental: (§1) The method adopted in the test was Caliper Mobility Shift Assay, which was a detection platform based on the mobility detection technology of microfluidic chip technology. Test steps: 1.25× kinase reaction buffer (62.5 mmol/L HEPES, pH 7.5; 0.001875% Brij-35; 12.5 mmol/L MgCl2; 2.5 mM DTT) and kinase reaction stop solution (100 mmol/L HEPES, pH 7.5; 0.015% Brij-35; 0.2% Coating Reagent #3) were configured. […] Collected data was tested on Caliper to yield that inhibition ratio to kinase activity=(max−conversion)/(max−min)×100. “max” was DMSO control without adding compound, and “min” was low control. When IC50 was determined, each sample was provided with 10 dilutions, each with 2 multiple holes, and repeated for 3 times.

FLT3 = FLT3 (Homo sapiens (Human), UniProt P36888); conditions: 100 nM; for inhibition at 0.1 µM: read-out: inhibitory rate on FLT3
Experimental: as §1

ALK = ALK (Homo sapiens (Human), UniProt Q9UM73)
Experimental: as §1

FGFR2 = FGFR2 (Homo sapiens (Human), UniProt P21802)
Experimental: as §1
(§2) According to the above-mentioned method for measuring kinase inhibitory activity, the inhibitory activity of the active compounds on other multiple kinases was measured to characterize the kinase selectivity of active inhibitors.

PDGFRβ = PDGFRβ (Homo sapiens (Human), UniProt P09619); conditions: for inhibitory rate on PDGFR-β / inhibition at 0.1 µM: 100 nM; for IC50: read-out: IC50 PDGFR-β; for inhibition at 0.1 µM: read-out: inhibitory rate on PDGFR-β
Experimental: as §1, §2

JAK1 = JAK1 (Homo sapiens (Human), UniProt P23458)
Experimental: as §1, §2

ABL1 = ABL1 (Homo sapiens (Human), UniProt P00519); conditions: 100 nM; for inhibition at 0.1 µM: read-out: inhibitory rate on ABL1
Experimental: (§3) The method adopted in the test was Caliper Mobility Shift Assay, which was a detection platform based on the mobility detection technology of microfluidic chip technology. […] Collected data was tested on Caliper to yield that inhibition ratio to kinase activity=(max−conversion)/(max−min)×100. “max” was DMSO control without adding compound, and “min” was low control. When IC50 was determined, each sample was provided with 10 dilutions, each with 2 multiple holes, and repeated for 3 times.

PDGFRα = PDGFRα (Homo sapiens (Human), UniProt P16234)
Experimental: as §3

Sequence of FLT3 (P36888 27-993): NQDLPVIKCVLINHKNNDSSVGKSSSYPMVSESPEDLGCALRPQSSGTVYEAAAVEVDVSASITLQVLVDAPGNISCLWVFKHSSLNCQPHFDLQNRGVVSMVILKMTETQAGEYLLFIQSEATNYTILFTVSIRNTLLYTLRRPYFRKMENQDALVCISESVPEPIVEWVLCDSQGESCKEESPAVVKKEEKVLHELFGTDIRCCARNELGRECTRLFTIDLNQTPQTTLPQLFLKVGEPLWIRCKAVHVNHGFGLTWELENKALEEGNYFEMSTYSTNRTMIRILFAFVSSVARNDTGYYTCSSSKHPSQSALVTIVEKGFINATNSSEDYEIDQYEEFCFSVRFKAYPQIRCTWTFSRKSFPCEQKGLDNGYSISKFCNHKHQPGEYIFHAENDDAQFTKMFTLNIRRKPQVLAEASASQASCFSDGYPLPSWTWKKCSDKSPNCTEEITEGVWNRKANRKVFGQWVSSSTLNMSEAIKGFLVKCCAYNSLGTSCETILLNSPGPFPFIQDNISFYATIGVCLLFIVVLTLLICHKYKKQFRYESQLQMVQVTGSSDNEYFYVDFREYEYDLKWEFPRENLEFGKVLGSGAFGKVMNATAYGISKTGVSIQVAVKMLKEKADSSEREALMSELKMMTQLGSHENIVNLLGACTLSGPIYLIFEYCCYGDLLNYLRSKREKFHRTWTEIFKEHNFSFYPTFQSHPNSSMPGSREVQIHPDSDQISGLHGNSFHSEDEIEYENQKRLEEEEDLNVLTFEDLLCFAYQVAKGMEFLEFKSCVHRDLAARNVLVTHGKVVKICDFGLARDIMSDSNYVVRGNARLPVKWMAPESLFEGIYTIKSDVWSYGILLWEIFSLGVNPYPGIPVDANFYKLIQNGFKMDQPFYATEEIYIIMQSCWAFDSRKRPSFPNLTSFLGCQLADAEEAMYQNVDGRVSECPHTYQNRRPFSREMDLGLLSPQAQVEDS
Sequence of PDGFRα (P16234 24-1089): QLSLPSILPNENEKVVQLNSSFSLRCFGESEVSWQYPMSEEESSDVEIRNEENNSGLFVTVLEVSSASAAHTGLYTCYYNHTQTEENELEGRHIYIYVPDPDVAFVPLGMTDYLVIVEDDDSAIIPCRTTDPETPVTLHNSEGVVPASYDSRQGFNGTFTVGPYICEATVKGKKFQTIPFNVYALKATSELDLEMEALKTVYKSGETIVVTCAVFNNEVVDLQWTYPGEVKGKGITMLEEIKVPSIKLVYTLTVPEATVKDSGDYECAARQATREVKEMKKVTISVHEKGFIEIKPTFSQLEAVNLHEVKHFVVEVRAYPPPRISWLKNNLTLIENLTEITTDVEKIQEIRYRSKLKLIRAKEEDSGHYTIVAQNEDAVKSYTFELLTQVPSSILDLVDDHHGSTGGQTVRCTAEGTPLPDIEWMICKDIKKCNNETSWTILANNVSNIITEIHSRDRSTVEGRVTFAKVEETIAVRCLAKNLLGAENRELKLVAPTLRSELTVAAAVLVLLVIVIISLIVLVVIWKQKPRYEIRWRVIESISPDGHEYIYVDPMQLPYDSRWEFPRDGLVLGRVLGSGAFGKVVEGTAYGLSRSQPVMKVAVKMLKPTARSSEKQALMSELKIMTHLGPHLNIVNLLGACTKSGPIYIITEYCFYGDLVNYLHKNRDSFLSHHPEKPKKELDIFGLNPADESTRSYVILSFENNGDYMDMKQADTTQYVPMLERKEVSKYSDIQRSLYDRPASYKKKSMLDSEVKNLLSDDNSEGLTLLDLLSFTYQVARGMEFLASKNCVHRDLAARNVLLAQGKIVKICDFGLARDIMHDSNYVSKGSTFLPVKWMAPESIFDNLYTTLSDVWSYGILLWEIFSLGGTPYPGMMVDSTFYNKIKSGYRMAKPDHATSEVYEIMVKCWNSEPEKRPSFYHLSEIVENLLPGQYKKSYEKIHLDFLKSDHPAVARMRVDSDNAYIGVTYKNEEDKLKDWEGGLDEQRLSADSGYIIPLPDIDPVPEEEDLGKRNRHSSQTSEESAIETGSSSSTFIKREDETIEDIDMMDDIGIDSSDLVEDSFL
Sequence of ABL1 (P00519 whole entry): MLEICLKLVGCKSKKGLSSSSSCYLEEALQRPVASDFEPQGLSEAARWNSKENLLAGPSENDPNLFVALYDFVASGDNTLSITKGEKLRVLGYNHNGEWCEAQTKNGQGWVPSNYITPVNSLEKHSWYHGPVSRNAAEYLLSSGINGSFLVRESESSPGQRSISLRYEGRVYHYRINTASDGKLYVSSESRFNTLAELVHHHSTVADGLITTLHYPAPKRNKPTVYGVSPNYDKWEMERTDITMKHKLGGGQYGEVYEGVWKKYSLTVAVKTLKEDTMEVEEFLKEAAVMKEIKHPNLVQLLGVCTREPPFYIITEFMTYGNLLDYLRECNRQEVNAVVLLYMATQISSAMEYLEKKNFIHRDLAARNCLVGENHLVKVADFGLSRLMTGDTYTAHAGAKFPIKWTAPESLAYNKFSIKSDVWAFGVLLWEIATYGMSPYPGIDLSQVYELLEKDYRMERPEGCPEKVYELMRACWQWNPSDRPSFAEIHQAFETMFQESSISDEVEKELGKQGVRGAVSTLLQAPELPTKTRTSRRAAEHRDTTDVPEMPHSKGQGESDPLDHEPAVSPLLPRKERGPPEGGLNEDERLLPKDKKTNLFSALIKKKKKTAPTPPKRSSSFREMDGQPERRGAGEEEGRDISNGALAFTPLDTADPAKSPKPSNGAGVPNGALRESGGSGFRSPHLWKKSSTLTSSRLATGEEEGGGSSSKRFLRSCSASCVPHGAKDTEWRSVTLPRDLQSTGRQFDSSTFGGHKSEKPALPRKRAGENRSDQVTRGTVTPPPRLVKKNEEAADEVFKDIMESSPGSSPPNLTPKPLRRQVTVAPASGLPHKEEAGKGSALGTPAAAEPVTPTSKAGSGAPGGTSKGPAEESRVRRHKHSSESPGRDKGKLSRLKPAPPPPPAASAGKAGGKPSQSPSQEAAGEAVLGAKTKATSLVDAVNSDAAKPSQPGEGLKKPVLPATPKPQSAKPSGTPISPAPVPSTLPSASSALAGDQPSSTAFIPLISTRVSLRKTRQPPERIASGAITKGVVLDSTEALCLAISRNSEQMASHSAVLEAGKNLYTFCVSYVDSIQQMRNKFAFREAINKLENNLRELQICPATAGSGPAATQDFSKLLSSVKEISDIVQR
Sequence of PDGFRβ (P09619 33-1106): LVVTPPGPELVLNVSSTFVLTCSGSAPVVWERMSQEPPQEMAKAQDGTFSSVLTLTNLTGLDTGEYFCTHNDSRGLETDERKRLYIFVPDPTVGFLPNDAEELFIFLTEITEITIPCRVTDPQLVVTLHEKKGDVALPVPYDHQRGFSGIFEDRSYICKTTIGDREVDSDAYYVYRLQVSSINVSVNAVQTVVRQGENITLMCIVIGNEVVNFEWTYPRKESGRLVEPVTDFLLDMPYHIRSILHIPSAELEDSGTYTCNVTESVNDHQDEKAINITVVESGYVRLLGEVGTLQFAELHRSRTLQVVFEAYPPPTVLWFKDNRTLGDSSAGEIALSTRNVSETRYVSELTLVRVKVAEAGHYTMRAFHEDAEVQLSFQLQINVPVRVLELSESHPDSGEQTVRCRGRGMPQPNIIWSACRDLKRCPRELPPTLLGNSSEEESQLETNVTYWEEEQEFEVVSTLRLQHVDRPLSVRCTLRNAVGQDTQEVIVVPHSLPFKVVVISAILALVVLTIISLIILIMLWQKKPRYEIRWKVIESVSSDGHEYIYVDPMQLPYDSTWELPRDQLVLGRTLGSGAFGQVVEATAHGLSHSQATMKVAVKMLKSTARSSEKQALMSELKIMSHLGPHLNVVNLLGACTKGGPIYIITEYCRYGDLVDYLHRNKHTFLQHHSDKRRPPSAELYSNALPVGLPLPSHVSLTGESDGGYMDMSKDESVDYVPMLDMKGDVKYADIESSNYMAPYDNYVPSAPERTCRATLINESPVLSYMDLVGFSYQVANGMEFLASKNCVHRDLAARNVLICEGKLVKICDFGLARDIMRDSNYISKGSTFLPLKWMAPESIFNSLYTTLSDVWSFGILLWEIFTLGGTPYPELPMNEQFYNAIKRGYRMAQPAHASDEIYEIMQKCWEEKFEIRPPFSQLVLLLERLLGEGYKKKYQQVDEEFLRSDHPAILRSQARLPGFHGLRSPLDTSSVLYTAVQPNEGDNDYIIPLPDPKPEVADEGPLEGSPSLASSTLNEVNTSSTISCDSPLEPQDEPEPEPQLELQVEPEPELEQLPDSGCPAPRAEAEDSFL
Sequence of FGFR2 (P21802 22-821, species assumed): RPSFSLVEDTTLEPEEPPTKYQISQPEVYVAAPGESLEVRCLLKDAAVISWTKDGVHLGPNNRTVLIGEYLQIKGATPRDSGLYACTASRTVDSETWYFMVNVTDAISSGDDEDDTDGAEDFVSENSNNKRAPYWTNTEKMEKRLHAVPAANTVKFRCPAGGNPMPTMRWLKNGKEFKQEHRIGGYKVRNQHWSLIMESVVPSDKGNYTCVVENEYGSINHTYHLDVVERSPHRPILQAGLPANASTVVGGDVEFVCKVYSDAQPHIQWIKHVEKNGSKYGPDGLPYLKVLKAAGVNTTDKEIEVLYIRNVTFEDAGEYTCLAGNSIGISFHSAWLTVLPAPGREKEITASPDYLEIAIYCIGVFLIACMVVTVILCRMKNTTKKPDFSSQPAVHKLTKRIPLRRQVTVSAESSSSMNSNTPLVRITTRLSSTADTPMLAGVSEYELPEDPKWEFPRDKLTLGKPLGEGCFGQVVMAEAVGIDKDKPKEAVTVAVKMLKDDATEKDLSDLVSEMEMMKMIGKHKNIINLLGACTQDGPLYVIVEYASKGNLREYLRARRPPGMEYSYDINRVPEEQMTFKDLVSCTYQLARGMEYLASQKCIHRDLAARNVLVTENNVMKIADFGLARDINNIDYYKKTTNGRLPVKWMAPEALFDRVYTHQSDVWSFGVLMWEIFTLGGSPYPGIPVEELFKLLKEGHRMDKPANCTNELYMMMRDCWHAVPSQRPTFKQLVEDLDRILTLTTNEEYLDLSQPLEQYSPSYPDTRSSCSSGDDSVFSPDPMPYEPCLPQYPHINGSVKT

Compound	inhibitory rate on FLT3 (FLT3) [%]	inhibitory rate on PDGFR-β (PDGFRβ) [%]	inhibitory rate on ABL1 (ABL1) [%]	inhibition at 0.1 µM (FLT3) [%]	inhibition at 0.1 µM (PDGFRβ) [%]	inhibition at 0.1 µM (ABL1) [%]	further results
Cc1cnc(Nc2ccc(N3CCN(C)CC3)cc2)nc1Nc1ccc2nccnc2c1 [Compound 5f, 5-methyl-N^2-(4-(4-methylpiperazine-1-yl)phenyl)-N^4-(quinoxaline-7-yl)-pyrimidine-2,4-diamine]	90.5	91.0	90.2	–	–	–	–
Cc1cnc(Nc2ccc(N3CCN(C)CC3)cc2)nc1Nc1ccc2[nH]ncc2c1 [Compound 5d]	80.4	84.1	80.9	–	–	–	–
CN1CCN(c2ccc(Nc3ncc(F)c(Nc4ccc5cn[nH]c5c4)n3)cc2)CC1 [Compound 3a, 5-fluoro-N^4-(1H-indazol-6-yl)-N^2-(4-(4-methylpiperazine-1-yl)phenyl)pyrimidine-2,4-diamine]	–	–	–	87.5	94.4	90.4	–
CN1CCN(c2ccc(Nc3ncc(Cl)c(Nc4ccc5cn[nH]c5c4)n3)cc2)CC1 [Compound 3b, 5-chloro-N^4-(1H-indazol-6-yl)-N^2-(4-(4-methylpiperazine-1-yl)phenyl)pyrimidine-2,4-diamine]	–	–	–	90.2	95.8	95.1	–
CN1CCN(c2ccc(Nc3ncc(C(F)(F)F)c(Nc4ccc5cn[nH]c5c4)n3)cc2)CC1 [Compound 3c, N^4-(1H-indazol-6-yl)-N^2-(4-(4-methylpiperazine-1-yl)phenyl)-5-(trifluoromethyl)pyrimidine-2,4-diamine]	–	–	–	78.6	81	84.2	–
Cc1cc(Nc2ccc3cn[nH]c3c2)nc(Nc2ccc(N3CCN(C)CC3)cc2)n1 [Compound 3h]	13.8	21.2	5.9	–	–	–	–
Cc1cnc(Nc2ccc(N3CCN(C)CC3)cc2)nc1Nc1ccc2nccnc2c1 [Compound 5e, 5-methyl-N^2-(4-(4-methylpiperazine-1-yl)phenyl)-N^4-(benzopyrazine-6-yl)-pyrimidine-2,4-diamine]	69.8	–	65.5	–	74.1	–	–
Cc1cnc(Nc2ccc(N3CCN(C)CC3)cc2)nc1Nc1ccc2cn[nH]c2c1 [Compound 3d, N^4-(1H-indazol-6-yl)-5-methyl-N^2-(4-(4-methylpiperazine-1-yl)phenyl)pyrimidine-2,4-diamine]	–	–	–	90.5	99.6	95.2	–
Cc1cnc(Nc2ccc(N3CCOCC3)cc2)nc1Nc1ccc2cn[nH]c2c1 [Compound 6a, N^4-(1H-indazol-6-yl)-5-methyl-N^2-(4-morphinophenyl) pyrimidine-2,4-diamine]	87.2	93.8	98.2	–	–	–	IC50 (PDGFRβ): 4.2 nM
CN1CCN(c2ccc(Nc3nc(Nc4ccc5cn[nH]c5c4)cc(C(F)(F)F)n3)cc2)CC1 [Compound 3g, N^4-(1H-indazol-6-yl)-N^2-(4-(4-methylpiperazine-1-yl)phenyl)-6-(trifluoromethyl)pyrimidine-2,4-diamine]	–	–	–	14.6	7.2	6.9	–
Cc1cnc(Nc2ccc(N3CCN(C)CC3)cc2)nc1Nc1ccc2c(c1)CCCC2 [Compound 5g, 5-methyl-N^2-(4-(4-methylpiperazine-1-yl)phenyl)-N^4-(5,6,7,8-tetrahydronaphthalene-2-yl)-pyrimidine-2,4-diamine]	–	–	–	85.7	90.4	89.2	–
COc1cnc(Nc2ccc(N3CCN(C)CC3)cc2)nc1Nc1ccc2cn[nH]c2c1 [Compound 3e, N^4-(1H-indazol-6-yl)-5-methoxy-N^2-(4-(4-methylpiperazine-1-yl)phenyl)pyrimidine-2,4-diamine]	–	–	–	51.2	55	54.3	–
Cc1cnc(Nc2ccc(N3CCN(C)CC3)cc2)nc1Nc1ccc2[nH]ccc2c1 [Compound 5a]	60.3	78.6	58.9	–	–	–	inhibitory rate on PDGFR-α (PDGFRα; 100 nM): 57.3%
Cc1cc2c(Nc3ccc4cn[nH]c4c3)nc(Nc3ccc(N4CCN(C)CC4)cc3)nc2s1 [Compound 3i]	42.6	30.7	23.6	–	–	–	inhibitory rate on PDGFR-α (PDGFRα; 100 nM): 6.6%
Cc1cnc(Nc2ccc(N3CCN(C)CC3)cc2)nc1Nc1cccc2[nH]ccc12 [Compound 5b]	60.9	90.3	78.8	–	–	–	–
CCOC(=O)c1cnc(Nc2ccc(N3CCN(C)CC3)cc2)nc1Nc1ccc2cn[nH]c2c1 [Compound 3f, Ethyl-4-((1H-indazol-6-yl)amino)-2-((4-(4-methylpiperazine-1-yl)phenyl)amino)pyrimidine-5-carboxylate]	–	–	–	34.8	3.5	4.3	–
Cc1cnc(Nc2ccc(N3CCN(C)CC3)cc2)nc1Nc1ccc2c(cnn2C)c1 [Compound 5c, 5-methyl-N^4-(1-methyl-1H-indazol-5-yl)-N^2-(4-(4-methylpiperazine-1-yl)phenyl)pyrimidine-2,4-diamine]	–	–	–	65.4	79.2	58.9	–

More lines, main results first:

inhibitory rate on FLT3 (FLT3) [%]	inhibitory rate on PDGFR-β (PDGFRβ) [%]	inhibitory rate on ABL1 (ABL1) [%]	inhibition at 0.1 µM (FLT3) [%]	inhibition at 0.1 µM (PDGFRβ) [%]	inhibition at 0.1 µM (ABL1) [%]	Compound	further results
82.3	82.4	81.2	–	–	–	Cc1cnc(Nc2ccc(C(=O)NCCN3CCOCC3)cc2)nc1Nc1ccc2cn[nH]c2c1 [Compound 6n]	IC50 (IKK β): 181 nM; IC50 (ALK): 95 nM; IC50 (FGFR2): 102 nM; IC50 (PDGFRβ): 19 nM; IC50 (JAK1): 6 nM
–	–	–	87.1	88.9	80.2	Cc1cnc(Nc2ccc(N3CCN(C)CC3)cc2)nc1Nc1ccc2c(c1)CCC2 [Compound 5h, N^4-(2,3-dihydro-1H-indene-5-yl)-5-methyl-N^2-(4-(4-methylpiperazine-1-yl)phenyl)pyrimidine-2,4-diamine]	–
–	–	–	87.3	68.7	91.2	Cc1cnc(Nc2ccc(N3CCNCC3)cc2)nc1Nc1ccc2cn[nH]c2c1 [Compound 6b, N^4-(1H-indazol-6-yl)-5-methyl-N^2-(4-(piperazine-1-yl)phenyl) py rimidine-2,4-diamine]	IC50 (PDGFRβ): 68.7 nM
–	–	–	93.4	98	85.2	Cc1cnc(Nc2ccc(N3CCN(C)CC3)cc2)nc1Nc1ccc2c(C)n[nH]c2c1 [Compound 5i, 5-methyl-N^4-(3-methyl-1H-indazol-6-yl)-N^2-(4-(4-methylpiperazine-1-yl)phenyl)pyrimidine-2,4-diamine]	IC50 (PDGFRβ): 7.9 nM
–	–	–	88.7	96.4	90.4	Cc1cnc(Nc2ccc(N3CCN(C)CC3)cc2)nc1Nc1ccc2cnn(C)c2c1 [Compound 5k, 5-methyl-N^4-(1-methyl-1H-indazol-6-yl)-N^2-(4-(4-methylpiperazine-1-yl)phenyl)pyrimidine-2,4-diamine]	IC50 (PDGFRβ): 7.3 nM; inhibition at 0.1 µM (PDGFRα; 100 nM, read-out: inhibitory rate on PDGFR-α): 91.1%; IC50 (PDGFRα; read-out: IC50 PDGFR-α): 19 nM
–	–	–	85.6	78.4	81	Cc1cnc(Nc2ccc(C(=O)N3CCN(C)CC3)cc2)nc1Nc1ccc2cn[nH]c2c1 [Compound 6m, (4-((4-((1H-indazol-6-yl)amino)-5-methylpyrimidine-2-yl)amino)phenyl) (4-methylpiperazine-1-yl)methanone]	–
74.3	71.1	71.6	–	–	–	Cc1cnc(Nc2ccc(N3CCN(C)CC3)cc2)nc1Nc1ccc2cn(CCNC(=O)OC(C)(C)C)nc2c1 [Compound 5j, Tert-butyl (2-(6-((5-methyl-2-((4-(4-methylpiperazine-1-yl)phenyl)amino)-pyrimidine-4-yl)amino)-2H-indazol-2-yl)ethyl) carbamate]	–
–	–	–	58.4	76.4	47.5	COc1cc(N2CCC(N3CCN(C)CC3)CC2)ccc1Nc1ncc(C)c(Nc2ccc3cn[nH]c3c2)n1 [Compound 6k, N^4-(1H-indazol-6-yl)-N^2-(2-methoxy-4-(4-(4-methylpiperazine-1-yl)piperidine-1-yl)phenyl)-5-methylpyrimidine-2,4-diamine]	–
